This note sets out measurements from ChEMBL document CHEMBL5291721, “A preclinical secondary pharmacology resource illuminates target-adverse drug reaction associations of marketed drugs” (Nat Commun, 2023).

Bounds are passed on as bounds.

The target of test [1] is 5-hydroxytryptamine receptor 2B (Homo sapiens, UniProt P41595). The test is classed as functional, cell-based.
For test [2], the target named is Histamine H3 receptor (Homo sapiens, UniProt Q9Y5N1).
In test [3] the target is Histamine H1 receptor (Homo sapiens, UniProt P35367).
Sequence of Histamine H1 receptor (P35367 whole entry): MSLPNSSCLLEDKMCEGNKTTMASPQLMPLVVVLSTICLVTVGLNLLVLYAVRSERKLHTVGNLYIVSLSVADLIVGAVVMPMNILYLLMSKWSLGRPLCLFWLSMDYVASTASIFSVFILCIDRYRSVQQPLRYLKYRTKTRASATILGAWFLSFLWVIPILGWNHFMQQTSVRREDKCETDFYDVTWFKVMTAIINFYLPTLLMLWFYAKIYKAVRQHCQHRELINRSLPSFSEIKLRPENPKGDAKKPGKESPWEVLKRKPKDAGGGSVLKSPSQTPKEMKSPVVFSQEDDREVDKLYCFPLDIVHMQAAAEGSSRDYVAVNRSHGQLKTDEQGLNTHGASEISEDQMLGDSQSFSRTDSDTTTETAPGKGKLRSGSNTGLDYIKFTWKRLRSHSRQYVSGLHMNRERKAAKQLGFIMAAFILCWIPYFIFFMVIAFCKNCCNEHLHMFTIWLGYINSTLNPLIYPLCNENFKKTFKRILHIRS
Test [4] concerns the target T1, Adenosine receptor A1 (Homo sapiens, UniProt P30542).
T1 sequence (P30542 whole entry): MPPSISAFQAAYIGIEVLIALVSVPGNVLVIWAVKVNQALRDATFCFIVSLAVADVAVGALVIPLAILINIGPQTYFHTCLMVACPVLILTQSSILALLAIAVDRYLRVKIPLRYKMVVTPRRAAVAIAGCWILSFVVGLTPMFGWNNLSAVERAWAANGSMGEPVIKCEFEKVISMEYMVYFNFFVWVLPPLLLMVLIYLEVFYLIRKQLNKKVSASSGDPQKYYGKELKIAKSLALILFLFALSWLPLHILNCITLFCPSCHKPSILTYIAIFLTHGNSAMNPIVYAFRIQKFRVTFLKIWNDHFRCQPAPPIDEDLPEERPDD

The target of test [5] is Vasopressin V1a receptor (Homo sapiens, UniProt P37288).
Sequence of Vasopressin V1a receptor (P37288 whole entry): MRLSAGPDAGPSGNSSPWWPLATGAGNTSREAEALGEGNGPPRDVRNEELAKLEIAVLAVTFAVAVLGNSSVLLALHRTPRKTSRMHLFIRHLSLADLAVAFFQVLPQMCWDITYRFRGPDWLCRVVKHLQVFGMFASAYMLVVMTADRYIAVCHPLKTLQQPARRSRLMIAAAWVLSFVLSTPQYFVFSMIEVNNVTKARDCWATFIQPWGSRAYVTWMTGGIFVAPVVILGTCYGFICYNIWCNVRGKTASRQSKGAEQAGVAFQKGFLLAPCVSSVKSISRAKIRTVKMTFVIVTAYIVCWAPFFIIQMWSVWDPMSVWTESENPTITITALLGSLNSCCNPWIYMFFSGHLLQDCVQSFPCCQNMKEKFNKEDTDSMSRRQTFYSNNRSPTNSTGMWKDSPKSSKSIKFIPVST
For test [6], the target named is cGMP-inhibited 3',5'-cyclic phosphodiesterase 3A (Homo sapiens, UniProt Q14432). The test is classed as functional.
Sequence of cGMP-inhibited 3',5'-cyclic phosphodiesterase 3A (Q14432 whole entry): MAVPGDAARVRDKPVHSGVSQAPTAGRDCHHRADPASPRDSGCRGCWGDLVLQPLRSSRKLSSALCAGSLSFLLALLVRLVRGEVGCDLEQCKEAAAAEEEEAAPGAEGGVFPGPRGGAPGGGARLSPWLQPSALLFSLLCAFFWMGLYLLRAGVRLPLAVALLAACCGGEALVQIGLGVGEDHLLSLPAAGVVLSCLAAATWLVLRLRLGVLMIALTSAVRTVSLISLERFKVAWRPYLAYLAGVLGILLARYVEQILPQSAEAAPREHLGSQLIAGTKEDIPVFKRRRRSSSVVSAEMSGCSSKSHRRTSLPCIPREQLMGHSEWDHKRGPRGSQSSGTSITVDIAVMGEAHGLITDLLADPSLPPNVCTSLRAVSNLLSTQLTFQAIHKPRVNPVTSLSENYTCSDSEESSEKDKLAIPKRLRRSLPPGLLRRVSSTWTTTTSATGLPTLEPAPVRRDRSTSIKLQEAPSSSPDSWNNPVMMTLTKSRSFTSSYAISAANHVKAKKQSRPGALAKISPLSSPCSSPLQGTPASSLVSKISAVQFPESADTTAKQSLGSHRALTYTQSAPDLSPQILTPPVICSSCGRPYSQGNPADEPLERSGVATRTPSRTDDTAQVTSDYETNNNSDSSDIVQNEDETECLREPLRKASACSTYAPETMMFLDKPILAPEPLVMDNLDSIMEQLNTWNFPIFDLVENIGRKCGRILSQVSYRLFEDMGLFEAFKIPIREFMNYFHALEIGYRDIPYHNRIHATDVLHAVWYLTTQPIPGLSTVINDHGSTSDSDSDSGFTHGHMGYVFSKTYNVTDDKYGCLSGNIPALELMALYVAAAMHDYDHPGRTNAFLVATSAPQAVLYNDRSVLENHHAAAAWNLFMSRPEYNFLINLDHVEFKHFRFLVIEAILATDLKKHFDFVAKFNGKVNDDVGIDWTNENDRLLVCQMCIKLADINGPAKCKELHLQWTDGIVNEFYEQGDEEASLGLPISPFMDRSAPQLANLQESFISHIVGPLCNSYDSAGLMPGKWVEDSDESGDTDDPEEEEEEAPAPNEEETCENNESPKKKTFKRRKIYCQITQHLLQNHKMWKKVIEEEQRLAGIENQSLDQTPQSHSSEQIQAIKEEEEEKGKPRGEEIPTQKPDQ
The target of test [7] is Glutamate receptor ionotropic, NMDA 1 (Rattus norvegicus, UniProt P35439).
For test [8], the target named is T2, Cholecystokinin receptor type A (Homo sapiens, UniProt P32238).
T2 sequence (P32238 whole entry): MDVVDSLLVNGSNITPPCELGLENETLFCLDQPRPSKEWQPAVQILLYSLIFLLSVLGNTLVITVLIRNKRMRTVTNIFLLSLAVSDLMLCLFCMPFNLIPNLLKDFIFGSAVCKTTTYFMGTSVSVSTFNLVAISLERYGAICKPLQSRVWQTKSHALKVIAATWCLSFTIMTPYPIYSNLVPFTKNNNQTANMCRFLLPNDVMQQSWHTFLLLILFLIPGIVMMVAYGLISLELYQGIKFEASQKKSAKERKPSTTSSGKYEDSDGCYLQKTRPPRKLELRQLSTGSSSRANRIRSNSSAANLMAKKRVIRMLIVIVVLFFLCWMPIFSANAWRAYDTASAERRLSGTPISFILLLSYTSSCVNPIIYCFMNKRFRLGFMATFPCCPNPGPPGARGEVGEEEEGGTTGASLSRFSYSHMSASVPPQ

Test [9] addresses Neuronal acetylcholine receptor subunit alpha-4 (Homo sapiens, UniProt P43681).
In test [10] the target is T3, B2 bradykinin receptor (Homo sapiens, UniProt P30411).
T3 sequence (P30411 whole entry): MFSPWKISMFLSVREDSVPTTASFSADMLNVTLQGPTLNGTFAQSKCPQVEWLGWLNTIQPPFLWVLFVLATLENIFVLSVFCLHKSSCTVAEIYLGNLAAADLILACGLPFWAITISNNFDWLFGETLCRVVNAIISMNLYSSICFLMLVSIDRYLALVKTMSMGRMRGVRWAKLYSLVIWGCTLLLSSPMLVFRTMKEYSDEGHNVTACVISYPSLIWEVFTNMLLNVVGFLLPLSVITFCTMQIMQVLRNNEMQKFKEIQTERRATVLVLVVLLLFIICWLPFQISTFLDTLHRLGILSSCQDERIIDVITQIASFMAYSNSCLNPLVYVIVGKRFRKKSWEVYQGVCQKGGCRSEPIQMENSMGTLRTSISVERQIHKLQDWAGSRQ

Test [11] concerns the target T4, Equilibrative nucleoside transporter 1 (Homo sapiens, UniProt Q99808).
T4 sequence (Q99808 whole entry): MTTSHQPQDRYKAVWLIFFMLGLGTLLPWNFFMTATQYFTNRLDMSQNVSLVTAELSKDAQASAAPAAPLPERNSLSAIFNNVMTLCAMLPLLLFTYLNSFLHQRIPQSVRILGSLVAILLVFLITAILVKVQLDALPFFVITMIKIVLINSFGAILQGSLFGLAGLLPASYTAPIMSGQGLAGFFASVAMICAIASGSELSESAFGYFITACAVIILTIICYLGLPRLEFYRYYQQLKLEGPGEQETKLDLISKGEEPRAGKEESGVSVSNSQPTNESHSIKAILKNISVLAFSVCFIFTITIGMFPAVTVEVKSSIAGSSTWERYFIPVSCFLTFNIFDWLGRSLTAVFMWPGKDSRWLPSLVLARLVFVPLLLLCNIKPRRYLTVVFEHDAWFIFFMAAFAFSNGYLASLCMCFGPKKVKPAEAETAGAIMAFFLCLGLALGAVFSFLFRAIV

In test [12] the target is Voltage-dependent L-type calcium channel subunit alpha-1C (Rattus norvegicus, UniProt P22002). The test is classed as functional.
Sequence of Voltage-dependent L-type calcium channel subunit alpha-1C (P22002 whole entry): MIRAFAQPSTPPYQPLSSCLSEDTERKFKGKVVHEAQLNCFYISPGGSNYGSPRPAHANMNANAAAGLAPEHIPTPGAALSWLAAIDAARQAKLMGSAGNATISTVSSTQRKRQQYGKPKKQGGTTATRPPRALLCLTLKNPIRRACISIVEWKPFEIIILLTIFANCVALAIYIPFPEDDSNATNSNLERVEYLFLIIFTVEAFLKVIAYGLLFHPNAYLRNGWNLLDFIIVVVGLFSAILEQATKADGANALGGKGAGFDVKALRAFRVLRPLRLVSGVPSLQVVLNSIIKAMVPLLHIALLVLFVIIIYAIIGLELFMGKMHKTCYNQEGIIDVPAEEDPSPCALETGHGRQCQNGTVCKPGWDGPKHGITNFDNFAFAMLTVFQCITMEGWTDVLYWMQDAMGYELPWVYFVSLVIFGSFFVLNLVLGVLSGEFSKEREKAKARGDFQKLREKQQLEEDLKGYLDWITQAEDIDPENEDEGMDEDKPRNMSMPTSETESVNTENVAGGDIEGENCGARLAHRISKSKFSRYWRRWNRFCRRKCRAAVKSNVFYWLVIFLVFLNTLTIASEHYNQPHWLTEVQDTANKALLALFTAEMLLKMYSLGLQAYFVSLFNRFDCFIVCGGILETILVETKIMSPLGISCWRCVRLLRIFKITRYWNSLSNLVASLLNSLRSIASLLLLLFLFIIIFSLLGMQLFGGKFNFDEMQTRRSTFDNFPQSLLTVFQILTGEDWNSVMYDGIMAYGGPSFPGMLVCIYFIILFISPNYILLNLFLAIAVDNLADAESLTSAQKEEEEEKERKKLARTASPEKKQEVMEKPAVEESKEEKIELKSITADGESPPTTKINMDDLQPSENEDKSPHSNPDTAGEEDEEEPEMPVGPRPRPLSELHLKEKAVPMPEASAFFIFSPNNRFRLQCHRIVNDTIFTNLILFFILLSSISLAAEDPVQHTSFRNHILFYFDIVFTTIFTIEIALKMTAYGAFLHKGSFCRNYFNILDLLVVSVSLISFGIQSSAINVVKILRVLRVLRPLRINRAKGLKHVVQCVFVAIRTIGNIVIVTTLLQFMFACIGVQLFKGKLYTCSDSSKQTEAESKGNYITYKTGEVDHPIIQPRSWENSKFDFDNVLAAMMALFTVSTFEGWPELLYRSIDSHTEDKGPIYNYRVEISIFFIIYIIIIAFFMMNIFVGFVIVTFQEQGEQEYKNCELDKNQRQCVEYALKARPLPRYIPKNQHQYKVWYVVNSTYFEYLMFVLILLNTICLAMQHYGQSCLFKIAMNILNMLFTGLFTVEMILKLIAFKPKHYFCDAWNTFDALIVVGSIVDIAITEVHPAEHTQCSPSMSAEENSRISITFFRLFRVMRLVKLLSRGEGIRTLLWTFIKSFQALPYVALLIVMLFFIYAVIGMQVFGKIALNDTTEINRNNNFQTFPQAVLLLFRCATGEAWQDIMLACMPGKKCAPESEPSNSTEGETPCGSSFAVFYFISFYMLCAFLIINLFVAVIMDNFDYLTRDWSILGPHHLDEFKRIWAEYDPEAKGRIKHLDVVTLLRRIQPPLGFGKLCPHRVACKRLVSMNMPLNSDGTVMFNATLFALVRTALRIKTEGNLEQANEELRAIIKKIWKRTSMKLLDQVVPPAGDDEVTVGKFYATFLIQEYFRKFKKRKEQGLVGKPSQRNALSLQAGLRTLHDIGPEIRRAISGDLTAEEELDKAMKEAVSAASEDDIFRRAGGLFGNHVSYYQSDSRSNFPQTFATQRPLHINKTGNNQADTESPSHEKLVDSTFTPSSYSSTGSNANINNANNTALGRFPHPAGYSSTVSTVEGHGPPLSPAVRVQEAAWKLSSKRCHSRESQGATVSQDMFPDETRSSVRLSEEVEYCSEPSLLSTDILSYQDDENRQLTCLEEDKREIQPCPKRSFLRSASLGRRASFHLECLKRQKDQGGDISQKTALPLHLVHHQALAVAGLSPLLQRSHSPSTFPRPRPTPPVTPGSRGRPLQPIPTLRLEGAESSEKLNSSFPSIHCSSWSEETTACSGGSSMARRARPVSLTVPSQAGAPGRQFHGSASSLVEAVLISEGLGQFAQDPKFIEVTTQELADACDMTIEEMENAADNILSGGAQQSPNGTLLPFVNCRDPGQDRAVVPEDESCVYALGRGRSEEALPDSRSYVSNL
The target in test [13] is T5, Alpha-2A adrenergic receptor (Homo sapiens, UniProt P08913).
T5 sequence (P08913 whole entry): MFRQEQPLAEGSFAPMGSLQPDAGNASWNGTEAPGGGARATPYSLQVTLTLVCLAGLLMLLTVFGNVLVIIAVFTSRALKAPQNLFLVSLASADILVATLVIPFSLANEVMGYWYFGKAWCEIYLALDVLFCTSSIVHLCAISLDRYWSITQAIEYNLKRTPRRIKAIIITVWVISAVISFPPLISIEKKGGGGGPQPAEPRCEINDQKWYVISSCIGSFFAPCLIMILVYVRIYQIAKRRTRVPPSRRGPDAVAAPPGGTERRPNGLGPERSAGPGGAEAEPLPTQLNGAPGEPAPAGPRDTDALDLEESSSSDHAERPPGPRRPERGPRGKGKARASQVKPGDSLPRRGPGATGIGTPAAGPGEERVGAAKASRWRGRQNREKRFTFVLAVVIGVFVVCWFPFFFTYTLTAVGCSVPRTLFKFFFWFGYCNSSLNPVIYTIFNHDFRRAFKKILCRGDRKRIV
The test is classed as functional, cell-based.
Also: assay procedure not described here.

Sequence of Neuronal acetylcholine receptor subunit alpha-4 (P43681 whole entry): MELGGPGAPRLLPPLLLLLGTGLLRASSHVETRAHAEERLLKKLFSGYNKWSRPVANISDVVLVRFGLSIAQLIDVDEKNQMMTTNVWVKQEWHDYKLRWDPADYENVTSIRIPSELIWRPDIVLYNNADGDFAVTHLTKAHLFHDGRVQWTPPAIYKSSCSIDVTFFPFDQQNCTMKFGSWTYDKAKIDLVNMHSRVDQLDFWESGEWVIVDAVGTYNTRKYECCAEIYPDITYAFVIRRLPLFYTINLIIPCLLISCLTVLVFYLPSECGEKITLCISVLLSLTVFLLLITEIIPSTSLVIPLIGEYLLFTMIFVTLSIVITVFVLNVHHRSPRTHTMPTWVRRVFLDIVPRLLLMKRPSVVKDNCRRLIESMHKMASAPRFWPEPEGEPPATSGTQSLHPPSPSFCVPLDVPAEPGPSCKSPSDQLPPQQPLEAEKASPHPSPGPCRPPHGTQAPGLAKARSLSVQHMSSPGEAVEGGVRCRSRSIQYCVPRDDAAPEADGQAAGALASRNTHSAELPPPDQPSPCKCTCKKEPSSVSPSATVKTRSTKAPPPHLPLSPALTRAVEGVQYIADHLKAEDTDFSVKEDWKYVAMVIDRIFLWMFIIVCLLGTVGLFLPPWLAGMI

Regarding `C=C1/C(=C\C=C2/CCC[C@]3(C)[C@@H]([C@H](C)/C=C/[C@@H](O)C4CC4)CC[C@@H]23)C[C@@H](O)C[C@@H]1O` [CALCIPOTRIENE], the half-maximal activity concentration (AC50) in [1], in test [2], in [3], in test [4], in [5] and in test [6] was over 30 µM each time. In addition, the concentration at half-maximal activity (AC50) in test [7], in test [8], in test [9], in [10], in [11] and in [12] was over 30 µM in each case. In addition, the half-maximal activity concentration (AC50) in test [13] is over 30 µM.
In the case of `CCN(CC)C(=O)Nc1ccc(OCC(O)CNC(C)(C)C)c(C(C)=O)c1` (stereo not given) [CELIPROLOL], the AC50 in test [1], in test [2], in [3], in test [4], in [5] and in test [6] was over 30 µM throughout. The AC50 in [7], in [8], in test [9], in test [10], in test [11] and in test [12] was over 30 µM throughout. For the same molecule, in test [13], the AC50 was over 30 µM.
Consider `C=C[C@@]1(C)CC(=O)[C@]2(O)[C@@]3(C)[C@@H](O)CCC(C)(C)[C@@H]3[C@H](O)[C@H](OC(C)=O)[C@@]2(C)O1` [COLFORSIN], for which the AC50 in test [1], in test [2], in [3], in test [4], in test [5] and in [6] was over 30 µM each time. Further, the AC50 in test [7], in test [8], in test [9], in test [10], in [11] and in [12] was over 30 µM throughout. Further, the AC50 in test [13] was over 30 µM.
Consider `CC(=O)OCC(=O)[C@@]1(O)[C@H](C)C[C@H]2[C@@H]3CCC4=CC(=O)C=C[C@]4(C)[C@@]3(F)[C@@H](O)C[C@@]21C` [DEXAMETHASONE ACETATE], for which the AC50 in [1] was over 10 µM; in test [2], over 10 µM; in test [3], over 10 µM; in test [4], over 30 µM; in [5] it was over 30 µM; in [6], over 30 µM. Also, the AC50 is over 10 µM in test [7]; over 30 µM in test [8]; over 10 µM in [9]; over 30 µM in [10]; over 30 µM in test [11]; over 10 µM in test [12]. For the same molecule, the half-maximal activity concentration (AC50) in test [13] is over 10 µM.
Turning to `CCCCCCCCCCCCCCCCCCCCCC(=O)Nc1ccn([C@@H]2O[C@H](CO)[C@@H](O)[C@@H]2O)c(=O)n1` [ENOCITABINE], the AC50 in [1], in test [2], in test [3], in [4], in test [5] and in test [6] was over 30 µM each time. For the same molecule, the AC50 in test [7], in [8], in test [9], in test [10], in test [11] and in test [12] was over 30 µM throughout. This molecule returned a half-maximal activity concentration (AC50) in test [13] of over 30 µM.
For `CCCCCC(=O)O[C@]1(C(C)=O)CC[C@H]2[C@@H]3CCC4=CC(=O)CC[C@]4(C)[C@H]3CC[C@@]21C` [HYDROXYPROGESTERONE CAPROATE], the AC50 was over 30 µM in test [1]; over 30 µM in [2]; over 30 µM in test [3]; over 30 µM in [4]; over 30 µM in [5]; 30 µM in [6]. Besides, the AC50 in test [7] was over 30 µM; in test [8] it was over 30 µM; in test [9] it was over 30 µM; in test [10] it was over 9.99 µM; in [11], over 30 µM; in test [12], over 30 µM. For the same molecule, the AC50 in test [13] was over 30 µM.
Take `O=C(O)c1ccccc1Nc1cc(Cl)ccc1C(=O)O` [LOBENZARIT]: the concentration at half-maximal activity (AC50) in test [1], in test [2], in [3], in test [4], in test [5] and in test [6] was over 30 µM in each case. For the same molecule, the AC50 in test [7] was 25 µM; in test [8] it was over 30 µM; in test [9], over 30 µM; in test [10] it was over 30 µM; in test [11], over 30 µM; in [12] it was over 30 µM. This molecule gave an AC50 in [13] of over 30 µM.
`CCOC(=O)O[C@]1(C(=O)OCCl)CC[C@H]2[C@@H]3CCC4=CC(=O)C=C[C@]4(C)[C@H]3[C@@H](O)C[C@@]21C` [LOTEPREDNOL ETABONATE]: the concentration at half-maximal activity (AC50) in test [1], in test [2], in test [3], in [4], in test [5] and in test [6] was over 30 µM in each case. Moreover, the AC50 in [7], in [8], in test [9], in test [10], in [11] and in test [12] was over 30 µM in each case. In addition, the half-maximal activity concentration (AC50) in test [13] is over 30 µM.
Turning to `COc1cc2c(cc1OC)C(CCc1ccc(Cl)cc1)N(C)CC2` (stereo not given) [METHOPHOLINE], the AC50 in test [1] was over 10 µM; in test [2] it was over 30 µM; in test [3], over 10 µM; in test [4] it was over 30 µM; in [5], over 30 µM; in test [6] it was over 30 µM. Also, the AC50 is over 10 µM in test [7]; over 30 µM in test [8]; over 30 µM in [9]; over 30 µM in test [10]; over 30 µM in test [11]; over 10 µM in test [12]. This molecule also displayed a half-maximal activity concentration (AC50) in test [13] of over 10 µM.
Turning to `COc1ccc(-c2noc(CC(=O)O)c2-c2ccc(OC)cc2)cc1` [MOFEZOLAC], the half-maximal activity concentration (AC50) in test [1] was over 30 µM; in test [2], over 30 µM; in [3], over 30 µM; in test [4] it was over 30 µM; in [5] it was over 30 µM; in [6], 13 µM. In addition, the AC50 in test [7], in [8], in test [9], in test [10], in [11] and in [12] was over 30 µM throughout. In addition, the AC50 in test [13] is over 30 µM.
